Measured values reported in ChEMBL document CHEMBL5653631, “A Potent and Selective ULK1 Inhibitor Suppresses Autophagy and Sensitizes Cancer Cells to Nutrient Stress” (iScience, 2018).
Each block holds one compound with its values, some of them ahead of it.

Tests used:
[1] = target: Serine/threonine-protein kinase pim-1 (Homo sapiens) (UniProt P11309); assay: Inhibition of human recombinant PIM1 at 500 nM in presence of ATP by radiometric assay relative to control
[2] = target: T1, Tyrosine-protein kinase ZAP-70 (Homo sapiens) (UniProt P43403); assay: Inhibition of human recombinant ZAP70 at 500 nM in presence of ATP by radiometric assay relative to control
T1 sequence (whole entry): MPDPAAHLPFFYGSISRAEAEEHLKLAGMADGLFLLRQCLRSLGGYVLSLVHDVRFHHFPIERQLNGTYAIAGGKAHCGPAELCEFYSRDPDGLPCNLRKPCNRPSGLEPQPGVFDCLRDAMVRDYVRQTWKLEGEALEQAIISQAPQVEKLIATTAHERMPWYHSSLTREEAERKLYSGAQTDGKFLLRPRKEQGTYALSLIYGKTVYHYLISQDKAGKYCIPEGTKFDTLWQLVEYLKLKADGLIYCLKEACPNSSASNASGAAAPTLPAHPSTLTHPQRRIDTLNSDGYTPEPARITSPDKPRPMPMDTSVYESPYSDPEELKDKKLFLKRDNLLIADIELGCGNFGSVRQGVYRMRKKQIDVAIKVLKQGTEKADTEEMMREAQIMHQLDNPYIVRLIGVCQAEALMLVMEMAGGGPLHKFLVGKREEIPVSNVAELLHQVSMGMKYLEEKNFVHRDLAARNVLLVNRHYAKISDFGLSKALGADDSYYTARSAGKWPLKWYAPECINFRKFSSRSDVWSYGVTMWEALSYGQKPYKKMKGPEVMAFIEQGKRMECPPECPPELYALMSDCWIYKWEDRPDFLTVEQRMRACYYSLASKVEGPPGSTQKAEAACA

[3] = target: Ribosomal protein S6 kinase alpha-5 (Homo sapiens) (UniProt O75582); assay: Inhibition of human recombinant MSK1 at 500 nM related to control ULK1
[4] = target: T2, Serine/threonine-protein kinase ULK2 (Homo sapiens) (UniProt Q8IYT8); assay: Inhibition of human recombinant ULK2 at 40 nM related to control ULK1
T2 sequence (whole entry): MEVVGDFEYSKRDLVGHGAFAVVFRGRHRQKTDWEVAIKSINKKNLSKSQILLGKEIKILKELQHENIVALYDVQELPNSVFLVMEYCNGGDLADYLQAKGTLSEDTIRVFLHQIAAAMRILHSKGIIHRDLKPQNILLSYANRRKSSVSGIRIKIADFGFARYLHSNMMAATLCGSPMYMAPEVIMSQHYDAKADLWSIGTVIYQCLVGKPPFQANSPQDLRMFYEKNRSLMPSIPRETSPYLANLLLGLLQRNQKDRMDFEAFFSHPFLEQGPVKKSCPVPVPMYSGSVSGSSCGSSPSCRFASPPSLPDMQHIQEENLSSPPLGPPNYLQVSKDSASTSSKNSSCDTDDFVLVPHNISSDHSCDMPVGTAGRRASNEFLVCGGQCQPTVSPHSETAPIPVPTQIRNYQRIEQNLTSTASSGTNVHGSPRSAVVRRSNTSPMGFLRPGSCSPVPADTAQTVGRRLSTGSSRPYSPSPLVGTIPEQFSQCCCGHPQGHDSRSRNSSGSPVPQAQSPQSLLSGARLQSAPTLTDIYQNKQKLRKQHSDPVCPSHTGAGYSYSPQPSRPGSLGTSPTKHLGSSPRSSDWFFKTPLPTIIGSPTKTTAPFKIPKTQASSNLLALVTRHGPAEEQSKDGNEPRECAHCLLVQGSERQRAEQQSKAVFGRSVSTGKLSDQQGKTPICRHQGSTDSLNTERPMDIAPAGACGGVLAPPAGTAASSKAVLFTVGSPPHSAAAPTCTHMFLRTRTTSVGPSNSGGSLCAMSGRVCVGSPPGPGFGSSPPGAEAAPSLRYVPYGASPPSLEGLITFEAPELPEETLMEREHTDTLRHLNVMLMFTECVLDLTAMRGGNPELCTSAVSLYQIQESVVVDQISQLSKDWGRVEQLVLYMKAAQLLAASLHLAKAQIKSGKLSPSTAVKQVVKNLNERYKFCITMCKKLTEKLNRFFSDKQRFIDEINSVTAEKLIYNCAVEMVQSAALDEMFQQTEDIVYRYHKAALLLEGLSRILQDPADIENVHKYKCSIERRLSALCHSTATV

[5] = target: Serine/threonine-protein kinase PAK 1 (Homo sapiens) (UniProt Q13153); assay: Inhibition of human recombinant PAK1 at 40 nM in presence of ATP by radiometric assay relative to control
[6] = target: T3, cAMP-dependent protein kinase catalytic subunit PRKX (Homo sapiens) (UniProt P51817); assay: Inhibition of human recombinant PRKX at 15 nM in presence of ATP by radiometric assay relative to control
T3 sequence (whole entry): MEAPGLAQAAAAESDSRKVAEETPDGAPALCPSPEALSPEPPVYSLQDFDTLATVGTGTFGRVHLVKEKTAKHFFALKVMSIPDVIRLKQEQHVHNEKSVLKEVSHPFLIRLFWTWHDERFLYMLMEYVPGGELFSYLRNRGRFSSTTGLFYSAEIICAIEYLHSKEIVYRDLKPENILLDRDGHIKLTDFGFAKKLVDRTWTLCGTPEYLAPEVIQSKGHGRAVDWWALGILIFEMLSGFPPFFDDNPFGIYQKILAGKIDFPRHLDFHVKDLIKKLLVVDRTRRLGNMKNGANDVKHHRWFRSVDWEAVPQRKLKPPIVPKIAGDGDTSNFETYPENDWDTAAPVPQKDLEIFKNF

Sequence of Ribosomal protein S6 kinase alpha-5 (Homo sapiens) (O75582 whole entry, looked up): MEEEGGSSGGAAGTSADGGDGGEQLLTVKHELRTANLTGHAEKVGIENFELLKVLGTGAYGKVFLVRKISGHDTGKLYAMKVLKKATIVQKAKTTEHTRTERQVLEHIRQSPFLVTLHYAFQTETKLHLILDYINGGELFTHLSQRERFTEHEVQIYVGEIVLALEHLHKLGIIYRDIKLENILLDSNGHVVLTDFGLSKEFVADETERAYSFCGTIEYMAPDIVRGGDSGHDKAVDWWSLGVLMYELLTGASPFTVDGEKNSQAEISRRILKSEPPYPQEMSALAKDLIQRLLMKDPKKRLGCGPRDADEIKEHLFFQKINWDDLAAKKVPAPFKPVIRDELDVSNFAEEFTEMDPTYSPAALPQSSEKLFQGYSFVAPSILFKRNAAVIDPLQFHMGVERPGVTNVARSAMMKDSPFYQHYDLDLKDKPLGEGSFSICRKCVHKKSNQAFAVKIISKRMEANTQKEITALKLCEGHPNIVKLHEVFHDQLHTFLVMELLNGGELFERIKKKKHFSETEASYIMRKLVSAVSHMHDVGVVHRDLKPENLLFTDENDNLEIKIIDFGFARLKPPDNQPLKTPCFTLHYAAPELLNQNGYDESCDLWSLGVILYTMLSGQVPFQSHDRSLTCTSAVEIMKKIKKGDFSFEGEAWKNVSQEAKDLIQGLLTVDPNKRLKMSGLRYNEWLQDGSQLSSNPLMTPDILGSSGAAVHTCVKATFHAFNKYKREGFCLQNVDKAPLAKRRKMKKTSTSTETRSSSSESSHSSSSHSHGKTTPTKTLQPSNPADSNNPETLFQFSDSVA
Sequence of Serine/threonine-protein kinase pim-1 (Homo sapiens) (P11309 whole entry, looked up): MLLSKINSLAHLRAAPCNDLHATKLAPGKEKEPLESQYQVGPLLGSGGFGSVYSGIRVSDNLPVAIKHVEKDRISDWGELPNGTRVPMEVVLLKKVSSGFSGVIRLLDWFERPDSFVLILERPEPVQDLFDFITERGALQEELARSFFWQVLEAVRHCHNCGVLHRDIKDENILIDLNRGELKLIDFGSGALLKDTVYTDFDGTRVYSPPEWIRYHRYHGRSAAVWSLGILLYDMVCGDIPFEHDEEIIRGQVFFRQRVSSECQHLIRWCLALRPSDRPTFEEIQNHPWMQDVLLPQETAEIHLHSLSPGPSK
Sequence of Serine/threonine-protein kinase PAK 1 (Homo sapiens) (Q13153 whole entry, looked up): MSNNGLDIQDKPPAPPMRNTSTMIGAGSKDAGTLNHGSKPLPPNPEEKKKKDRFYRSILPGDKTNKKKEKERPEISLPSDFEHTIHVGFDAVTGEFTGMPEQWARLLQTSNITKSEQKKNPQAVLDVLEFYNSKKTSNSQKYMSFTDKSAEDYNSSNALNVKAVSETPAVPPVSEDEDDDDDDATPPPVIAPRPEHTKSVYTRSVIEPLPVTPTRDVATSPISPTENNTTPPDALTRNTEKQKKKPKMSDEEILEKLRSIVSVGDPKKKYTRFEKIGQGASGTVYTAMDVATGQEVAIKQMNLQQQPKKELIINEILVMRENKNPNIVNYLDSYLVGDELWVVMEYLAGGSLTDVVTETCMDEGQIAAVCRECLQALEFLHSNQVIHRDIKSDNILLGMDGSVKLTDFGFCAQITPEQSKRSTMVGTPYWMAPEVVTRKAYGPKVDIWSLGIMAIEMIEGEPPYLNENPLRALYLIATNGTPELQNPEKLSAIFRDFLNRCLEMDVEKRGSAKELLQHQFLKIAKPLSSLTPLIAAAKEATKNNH

inhibition [1]: 2%
inhibition [2]: 1%
fold change (FC) [3]: 0.15
SMILES: CNC(=O)c1ccccc1Oc1nc(Nc2cc(OC)c(OC)c(OC)c2)ncc1Br

fold change (FC) [4]: 0.63
inhibition [5]: 0%
SMILES: O=C(N[C@@H](C1CC1)C(F)(F)F)c1cc(-c2cnn3cc(-c4ccc(F)cc4)cnc23)cs1

inhibition [6]: 16%
SMILES: CC(C)[C@H](NC(=O)c1cc(-c2cnn3cc(-c4ccc(OCCN5CCCCC5)cc4)cnc23)cs1)C(F)(F)F
